Laboratory results reported in PubChem BioAssay AID1023 (Columbia University Molecular Screening Center, 2008).

What follows are molecules tested on HUVEC TNFalpha-induced p65 nuclear translocation, imaging (assay: inhibitors of TNFa-induced NFkB p65 translocation, SAR follow-up, imaging, HUVEC (AID 1023)).
Cc1ccc2c(c1)-c1ccc3cccnc3c1NS2(=O)=O was tested, and the IC50 was 562 nM.
Work on Cc1ccc2cccc(NS(=O)(=O)c3ccc(Cl)s3)c2n1 yielded an IC50 of 986 nM.
With COc1ccc2c(c1)-c1ccc3cccnc3c1NS2(=O)=O the IC50 was 992 nM.
In the case of COc1cc2ccc(C)nc2c2c1-c1cc(C)ccc1S(=O)(=O)N2, the IC50 is reported as 886 nM.
Cc1ccc2cccc(NS(=O)(=O)c3cccc([N+](=O)[O-])c3)c2n1 gave an IC50 of 912 nM.
COc1ccc(S(=O)(=O)Nc2cccc3ccc(C)nc23)c([N+](=O)[O-])c1 was tested, and the IC50 was 1020 nM.
